{"source": "patent US20220265818A1", "about": "“CHIMERIC ANTIGENS FOR TREATING VIRAL INFECTION” (AKSHAYA BIO INC., priority 2019, published 2022)", "system": "HBV", "assay": "Liver HBV DNA in HBV transgenic mice", "settings": "ADV at 5 mg/kg/day, oral gavage"}
{"smiles": "CC(C)(C)C(=O)OCOP(=O)(COCCn1cnc2c(N)ncnc21)OCOC(=O)C(C)(C)C", "note": "[ADV, Adefovir dipivoxil]", "values": [{"measurement": "liver HBV DNA", "value": "reduced liver HBV DNA"}]}
